Read-outs that look alike come from different tables or passages of the source.
Assays:
[1] = target: human GABAA α5β2γ1 receptor (Homo sapiens (Human), UniProt P31644+Q8N1C3); test: Radioligand binding assay for γ1-containing GABAA subtypes, [3H]RO7239181 competition (α5β2γ1)
[2] = target: human GABAA α2β2γ1 receptor (Homo sapiens (Human), UniProt P47869+Q8N1C3); test: Radioligand binding assay for γ1-containing GABAA subtypes, [3H]RO7239181 competition (α2β2γ1)
[3] = target: human GABAA α1β3γ2 receptor (Homo sapiens (Human), UniProt P14867+P18507); test: Radioligand binding assay for γ2-containing GABAA subtypes, [3H]Flumazenil competition (α1β3γ2); conditions: for γ2/γ1 Selectivity Ratio: Ki α1β3γ2 (nM)/Ki α2β2γ1 (nM); for LogSel: Log[Ki α1β3γ2 (nM)/Ki α2β2γ1 (nM)]
[4] = target: α2β2γ1 GABAA receptor subtype (Homo sapiens (Human), UniProt P47869+Q8N1C3); test: Two-electrode voltage clamp electrophysiology in Xenopus oocytes expressing GABAA receptors (modulation of GABA EC20 current); format: cell-based; conditions: for Efficacy (GABA)%: % modulation of GABA EC20 = 100*(Fold increase-1), α2β2γ1 oocytes, compound at approx. 30-fold Ki; for Fold increase h-GABA-A α2β2γ1 oocyte @ 30-fold Ki: Xenopus oocytes expressing α2β2γ1, compound at approx. 30-fold its Ki α2β2γ1, GABA EC20 current
Procedure, shortened: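 Each concentration was tested on ≥3 oocytes held at −80 mV at room temperature, recorded 3-5 days post-injection. A control and a test response to EC20 GABA (1.5 min each) were superimposed and their point-by-point ratio taken. Peak ratio reported as % modulation of GABA EC20 = 100×(fold increase−1).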

[5] = Ki h-GABAA α2β2γ1, [3H]RO7239181 competition binding, human GABAA α2β2γ1
[6] = Ki h-GABAA α2β2γ1, displacement of [3H]RO7239181, membranes of HEK293F cells expressing human receptors, means of two determinations

Structure (SMILES)	Ki [1] [nM]	Ki [2, 5] [nM]	Ki [2, 6] [nM]	Ki [3] [nM]	γ2/γ1 Selectivity Ratio [3]	LogSel [3]	Efficacy (GABA)% [4] [%]	Fold increase h-GABA-A α2β2γ1 oocyte @ 30-fold Ki [4]	Ki ([2]; Ki h-GABAA α2β2γ1, Table 3, reference compounds) [nM]	γ2/γ1 Selectivity Ratio ([3]; Table 3)	LogSel ([3]; Table 3)	Ki ([3]; read-out: Ki h-GABAA α1β3γ2, Table 3, reference compounds) [nM]
COCc1cn2c(n1)CN=C(c1c(F)cccc1F)c1c-2ccc(Cl)c1Cl [Example 5, 7,8-dichloro-6-(2,6-difluorophenyl)-2-(methoxymethyl)-4H-benzo[f]imidazo[1,2-a][1,4]diazepine]	1.2	9.6	9.6	307	31.9	1.50	78	1.78				
C[C@@H]1N=C(c2ncccc2F)c2c(ccc(C(F)(F)F)c2Cl)-n2nc(C(=O)N3CC4(CCOC4)C3)nc21 [Example 120, 6-oxa-2-azaspiro[3.4]octan-2-yl-[(4S)-7-chloro-6-(3-fluoro-2-pyridyl)-4-methyl-8-(trifluoromethyl)-4H-[1,2,4]triazolo[1,5-a][1,4]benzodiazepin-2-yl]methanone]	8.55	80.4	80.4	5330	66.3	1.82	178	2.78				
C[C@@H]1N=C(c2c(F)cccc2F)c2c(ccc(C(F)(F)F)c2Cl)-n2nc(C(=O)NCC#N)nc21 [Example 110, (4S)-7-chlor-N-(cyanomethyl)-6-(2,6-difluorophenyl)-4-methyl-8-(trifluoromethyl)-4H-[1,2,4]triazolo[1,5-a][1,4]benzodiazepine-2-carboxamide]	2.64	12.1	12.1	2480	205.1	2.31	119	2.19				
C[C@@H]1N=C(c2c(F)cccc2F)c2c(ccc(Cl)c2Cl)-n2nc(C(=O)N3CC[C@H](F)C3)nc21 [Example 80, [(4S)-7,8-dichloro-6-(2,6-difluorophenyl)-4-methyl-4H-[1,2,4]triazolo[1,5-a][1,4]benzodiazepin-2-yl]-[(3S)-3-fluoropyrrolidin-1-yl]methanone]	1.9	14.3	14.3	979	68.5	1.84	89	1.89				
C[C@@H]1N=C(c2c(F)cccc2F)c2c(ccc(C(F)(F)F)c2Cl)-n2nc(NC(=O)NC3CC3)nc21 [Example 126, 1-[(4S)-7-chloro-6-(2,6-difluorophenyl)-4-methyl-8-(trifluoromethyl)-4H-[1,2,4]triazolo[1,5-a][1,4]benzodiazepin-2-yl]-3-cyclopropyl-urea]	3.23	10.2	10.2	4600	451.4	2.65	38	1.38				
CC(=O)NCc1nc2n(n1)-c1ccc(Cl)c(Cl)c1C(c1c(F)cccc1F)=N[C@H]2C [Example 67, N-[[(4S)-7,8-dichloro-6-(2,6-difluorophenyl)-4-methyl-4H-[1,2,4]triazolo[1,5-a][1,4]benzodiazepin-2-yl]methyl]acetamide]	0.79	5.2	5.2	503	96.5	1.98	47	1.47				
C[C@@H]1N=C(c2c(F)cccc2F)c2c(ccc(Cl)c2Cl)-n2nc(C(=O)N3CC(F)C3)nc21 [Example 40, [(4S)-7,8-dichloro-6-(2,6-difluorophenyl)-4-methyl-4H-[1,2,4]triazolo[1,5-a][1,4]benzodiazepin-2-yl]-(3-fluoroazetidin-1-yl)methanone]	0.9	7.4	7.35	672	91.4	1.96	89	1.89				
Cc1nc2n(n1)-c1ccc(Cl)c(Cl)c1C(c1c(F)cccc1F)=NC2 [Example 32, 7,8-dichloro-6-(2,6-difluorophenyl)-2-methyl-4H-[1,2,4]triazolo[1,5-a][1,4]benzodiazepine]	0.6	2.4	2.44	163	67.1	1.83	26	1.26				
C[C@@H]1N=C(c2ncccc2F)c2c(ccc(C(F)(F)F)c2Cl)-n2nc(C(=O)N3CC(C(F)F)C3)nc21 [Example 142, [(4S)-7-chloro-6-(3-fluoro-2-pyridyl)-4-methyl-8-(trifluoromethyl)-4H-[1,2,4]triazolo[1,5-a][1,4]benzodiazepin-2-yl]-[3-(difluoromethyl)azetidin-1-yl]methanone]	8.06	39.7	39.7	> 30000	756.0	2.88	123	2.23				
[2H]C([2H])([2H])N(C(=O)c1nc2n(n1)-c1ccc(Cl)c(Cl)c1C(c1c(F)cccc1F)=N[C@H]2C)C([2H])([2H])[2H] [Example 19, (4S)-7,8-dichlor-6-(2,6-difluorophenyl)-4-methyl-N,N-bis(trideuteriomethyl)-4H-[1,2,4]triazolo[1,5-a][1,4]benzodiazepine-2-carboxamide]	1.98	32.5	32.5	2650	81.5	1.91	97	1.97	32.5	81.5	1.91	2650
C[C@@H]1N=C(c2c(F)cccc2F)c2c(ccc(Cl)c2Cl)-n2nc(N3CCS(=O)(=O)CC3)nc21 [Example 52, 4-[(4S)-7,8-dichloro-6-(2,6-difluorophenyl)-4-methyl-4H-[1,2,4]triazolo[1,5-a][1,4]benzodiazepin-2-yl]-1,4-thiazinane 1,1-dioxide]	1.26	12.4	12.4	578	46.6	1.67	41	1.41				
C[C@@H]1N=C(c2c(F)cccc2F)c2c(ccc(Cl)c2Cl)-n2nc(C3COC3)nc21 [Example 81, (4S)-7,8-dichloro-6-(2,6-difluorophenyl)-4-methyl-2-(oxetan-3-yl)-4H-[1,2,4]triazolo[1,5-a][1,4]benzodiazepine]	1.63	6.4	6.45	563	87.4	1.94	53	1.53				
C[C@@H]1N=C(c2c(F)cccc2F)c2c(ccc(Cl)c2Cl)-n2nc(C(=O)NC3(C#N)CC3)nc21 [Example 61, (4S)-7,8-dichloro-N-(1-cyanocyclopropyl)-6-(2,6-difluorophenyl)-4-methyl-4H-[1,2,4]triazolo[1,5-a][1,4]benzodiazepine-2-carboxamide]	1.45	4.2	4.18	585	140.0	2.15	99	1.99				
[2H]C([2H])([2H])NC(=O)c1nc2n(n1)-c1ccc(Cl)c(Cl)c1C(c1c(F)cccc1F)=NC2 [Example 7, 7,8-dichloro-6-(2,6-difluorophenyl)-N-(trideuteriomethyl)-4H-[1,2,4]triazolo[1,5-a][1,4]benzodiazepine-2-carboxamide]	0.75	6	6	455	75.6	1.88	68	1.68				
COCCNC(=O)c1nc2n(n1)-c1ccc(Cl)c(Cl)c1C(c1c(F)cccc1F)=N[C@H]2C [Example 28, (4S)-7,8-dichloro-6-(2,6-difluorophenyl)-N-(2-methoxyethyl)-4-methyl-4H-[1,2,4]triazolo[1,5-a][1,4]benzodiazepine-2-carboxamide]	1.08	3.9	3.92	578	147.4	2.17	56	1.56				
C[C@@H]1N=C(c2ncccc2F)c2c(ccc(C(F)(F)F)c2Cl)-n2cc(C(=O)N3CC(C(F)F)C3)nc21 [Example 156, [3-(difluoromethyl)azetidin-1-yl]-[(4S)-7-chloro-6-(3-fluoro-2-pyridyl)-4-methyl-8-(trifluoromethyl)-4H-imidazo[1,2-a][1,4]benzodiazepin-2-yl]methanone]	15.5	95.1	93.1	10800	116.1	2.06	168	2.68				
